Data: patent US9850521B2 (Agilent Technologies, Inc., priority 2014, dated 2017)
Entries after “also recorded” stand apart in the source; their conditions may differ.

Target: Cas9 (Streptococcus pyogenes serotype M1, UniProt Q99ZW2)
Assay: Cas9 plasmid DNA cleavage assay, testing of surfactants
Format: biochemical
Conditions: for effect on Cas9 enzyme activity: FIG. 4, versus absence of surfactants/detergents, two RNA guides; for % cleavage: linearized pKan-C1 substrate DNA, 30 min at 30° C.
Method: The reactions were stopped by heat inactivation of the enzyme at 65° C. for 15 minutes. Cleavage reactions were analyzed by Agilent Tape Station using Genomic Screen Tapes.
Reaction mixtures were incubated at 30° C. for 30 minutes followed by heat inactivation of the enzyme. Table 1 lists the surfactants/detergents used at various concentrations and the resulting DNA template cleavage percentage.

Sequence of Cas9 (Q99ZW2 whole entry): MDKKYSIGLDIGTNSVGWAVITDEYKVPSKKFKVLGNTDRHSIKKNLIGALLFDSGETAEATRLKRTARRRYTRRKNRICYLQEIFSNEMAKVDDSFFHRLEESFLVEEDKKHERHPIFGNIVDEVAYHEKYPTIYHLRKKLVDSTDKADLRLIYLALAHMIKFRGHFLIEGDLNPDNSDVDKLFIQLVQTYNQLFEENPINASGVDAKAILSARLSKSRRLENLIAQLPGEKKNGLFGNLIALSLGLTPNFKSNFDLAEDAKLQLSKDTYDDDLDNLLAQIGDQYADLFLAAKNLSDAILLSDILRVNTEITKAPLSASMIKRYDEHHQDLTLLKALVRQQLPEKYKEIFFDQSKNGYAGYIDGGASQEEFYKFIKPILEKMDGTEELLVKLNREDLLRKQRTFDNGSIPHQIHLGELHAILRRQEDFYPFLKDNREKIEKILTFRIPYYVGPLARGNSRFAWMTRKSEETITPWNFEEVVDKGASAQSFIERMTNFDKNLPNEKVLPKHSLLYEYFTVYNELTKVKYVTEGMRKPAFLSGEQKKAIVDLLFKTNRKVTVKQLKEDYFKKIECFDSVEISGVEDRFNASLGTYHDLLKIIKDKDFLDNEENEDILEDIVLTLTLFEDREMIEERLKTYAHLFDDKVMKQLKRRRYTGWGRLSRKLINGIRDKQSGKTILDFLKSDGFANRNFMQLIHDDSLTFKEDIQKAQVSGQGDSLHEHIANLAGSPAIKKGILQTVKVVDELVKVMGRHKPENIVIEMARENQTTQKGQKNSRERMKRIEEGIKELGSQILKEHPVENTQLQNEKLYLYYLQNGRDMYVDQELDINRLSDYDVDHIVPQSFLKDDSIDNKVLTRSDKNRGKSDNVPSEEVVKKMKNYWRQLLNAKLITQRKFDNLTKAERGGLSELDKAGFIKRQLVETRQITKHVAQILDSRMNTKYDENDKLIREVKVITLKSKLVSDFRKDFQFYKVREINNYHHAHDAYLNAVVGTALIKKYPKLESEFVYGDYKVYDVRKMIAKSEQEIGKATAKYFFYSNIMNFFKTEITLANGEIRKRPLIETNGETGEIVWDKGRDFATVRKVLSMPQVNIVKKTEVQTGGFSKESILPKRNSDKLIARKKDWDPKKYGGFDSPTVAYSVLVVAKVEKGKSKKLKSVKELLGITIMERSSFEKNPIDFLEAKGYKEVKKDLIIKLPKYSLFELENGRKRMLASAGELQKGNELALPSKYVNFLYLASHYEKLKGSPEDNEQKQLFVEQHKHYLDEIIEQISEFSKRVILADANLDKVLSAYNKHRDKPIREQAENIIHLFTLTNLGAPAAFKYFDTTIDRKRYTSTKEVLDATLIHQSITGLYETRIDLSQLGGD

Compound | effect on Cas9 enzyme activity | % cleavage (Guide 601, detergent 0.025%) [%] | % cleavage (Guide 601, detergent 0.05%) [%] | % cleavage (Guide 601, detergent 0.1%) [%] | % cleavage (Guide 601, detergent 0.2%) [%] | % cleavage (Kan C1 Guide, detergent 0.025%) [%] | % cleavage (Kan C1 Guide, detergent 0.05%) [%] | % cleavage (Kan C1 Guide, detergent 0.1%) [%] | % cleavage (Kan C1 Guide, detergent 0.2%) [%]
C[C@H](CCC(=O)NCCC[N+](C)(C)CC(O)CS(=O)(=O)[O-])[C@H]1CC[C@H]2[C@@H]3[C@H](O)C[C@@H]4C[C@H](O)CC[C@]4(C)[C@H]3C[C@H](O)[C@]12C (stereo partly drawn) [Chapso, reference compound] | had no effect on Cas9 activity | 0.52 | 0.50 | 0.51 | 0.54 | 0.43 | 0.43 | 0.45 | 0.44
octylphenoxypolyethoxyethanol [Triton X 100] | improved enzyme activity; also recorded: significantly increased Cas9 activity | 0.60 | 0.60 | 0.59 | 0.65 | 0.54 | 0.51 | 0.52 | 0.61
